Tested on: human IFN γ promoter
Assay: IFN γ promoter reporter assay (dual luciferase, pIFN γ-Luc/pRL-TK) in transfected Jurkat cells
Format: cell-based
Experimental: Jurkat cells were transfected with pIFN γ-Luc and pRL-TK, or pIL-2 and pRL-TK, plasmid DNA constructs using electroporation and then treated with different plant crude extracts, which were prepared using boiling water. The fold induction was expressed in arbitrary units as the ratio of firefly luciferase activity (encoded by pIFN γ-Luc) to that of Renilla luciferase (pRL-TK).
A 615 base pair (bp) DNA fragment containing the human IFN γ promoter region from bp −487 to +128 (SEQ ID NO:1) was amplifed by polymerase chain reaction (PCR) using the specific primers (5′-[…]-3′ (SEQ ID NO:3) and 5′-[…]-3′ (SEQ ID NO:4))and human genomic DNA, isolated from blood, as a template. […]
Firefly and Renilla luciferase activities were measured in cell lysates made from transfected T-cells that were exposed to a plant extract or phytocompound, or underwent negative control treatment. […] The protein concentration in each lysate was determined using a Bradford reagent protein assay (Bio-Rad, Calif.).
Samples of ten micrograms of cell lysate protein were subjected to a dual luciferase reporter assay according to the manufacturer's instructions (Promega, Wis.). Firefly and Renilla luciferase activities were determined in each sample with a luminometer. […] The IFN γ or IL-2 promoter activity for each sample was calculated as a ratio of firefly luciferase to Renilla luciferase-dependent luminescence.

| SMILES | IFN γ promoter activity (concentration not given) | IFN γ promoter activity (100 μg/mL, relative to untreated cells, p<0.001) |
| --- | --- | --- |
| O=C(/C=C/c1ccc(O)c(O)c1)O[C@@H]1[C@H](O)C[C@@](O)(C(=O)O)C[C@H]1OC(=O)/C=C/c1ccc(O)c(O)c1 [4,5-di-O-caffeoylquinic acid] | did not induce a significant increase |  |
| COc1ccc(-c2oc3cc(O[C@@H]4O[C@H](CO)[C@@H](O)[C@H](O)[C@H]4O)c(OC)c(O)c3c(=O)c2OC)cc1O [Centaurein, centaurein] |  | highly significant increase |

From patent publication US7691575B2, “Immunomodulatory compositions” (Academia Sinica, priority 2005, dated 2010)
